Where “and” joins values, the source holds several entries; their conditions need not be identical. Equal values may be shown once. Entries after “also recorded” stand apart in the source; their conditions may differ. Read-outs that look alike come from different tables or passages of the source.
Experiments:
[1] = target: T1, cellular retinol-binding protein (CRBP) (Rattus norvegicus, UniProt P02696); test: Binding to cellular retinol-binding protein (CRBP): inhibition of [3H]retinol binding, sucrose density-gradient sedimentation; settings: for Percent Inhibition of [3H] Retinol Binding (CRBP Assay): 150-fold molar excess of unlabelled test retinoid, rat testes cytosol
T1 construct: portions of rat testes cytosol (1 mg protein) were incubated; from tissue; host or cells: rat testes cytosol
T1 sequence (P02696 1-135): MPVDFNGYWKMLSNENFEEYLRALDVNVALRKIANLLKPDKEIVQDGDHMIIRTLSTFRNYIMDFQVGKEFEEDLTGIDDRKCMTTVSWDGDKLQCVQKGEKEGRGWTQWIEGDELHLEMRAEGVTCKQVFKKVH
Procedure: Binding affinities of the retinyl ethers for CRBP were determined by sucrose, density-gradient, sedimentation analysis as described before (Sani et al., 1980). Briefly, portions of rat testes cytosol (1 mg protein) were incubated with [^3 H]retinol (50 pmol) in the presence or absence of a 150-fold molar excess of unlabeled retinol or the test retinoids. The preparations after dialysis were analyzed by 5-20% sucrose density gradient sedimentation. For measuring the competitive binding of the unlabeled retinoids, inhibition of [^3 H]retinol binding to CRBP by unlabeled retinol is regarded as 100%. The mean and standard deviation calculated from the relative inhibitions obtained from multiple determinations were used as the relative binding affinities of the various retinyl ethers.
The group of retinyl benzyl ethers has now been evaluated for binding to CRBP. Binding to CRBP, as defined for Table I, at approximately 60% or higher was rated as strong; at 40-60%, as moderate; at 20-40%, as low.
^a Per cent inhibition of binding of tritiated retinol to CRBP by a
150-fold molar excess of the unlabelled test retinoid (Sani et al., 1980,

[2] = tested on: TPA-induced ornithine decarboxylase (ODC); test: Inhibition of TPA-induced ornithine decarboxylase (ODC) in mouse skin; assay type: in vivo
Text: (§1) Earlier, several alkyl, alkenyl, or alkynyl retinyl ethers had been assayed for inhibition of TPA-induced ornithine decarboxylase (ODC) in mouse skin and for the suppression of DMBA-initiated and TPA-promoted mouse-skin papillomas (Shealy et al., 1997). In comparison with control groups, these retinyl ethers were ineffective. Only a few representatives of the benzyl ethers were selected for tests in these assays. […] Because of these and the earlier results (Shealy et al., 1997), testing of retinyl benzyl ethers in the ODC and papilloma assays was discontinued.

mouse-skin papillomas = test: Suppression of DMBA-initiated and TPA-promoted mouse-skin papillomas; assay type: in vivo; settings: mouse-skin papilloma assay
Text: as §1

[3] = tested on: MNU-induced mammary cancer; test: Short-term (90-day) assay against MNU-induced mammary cancer in rats (Expts. 2 and 3); assay type: in vivo, rat (female Sprague-Dawley)
Procedure: Retinoid diet mixtures were stored at 4° C. […] The animals were palpated for mammary tumors 2×/week. […] Also, five rats/group had complete necropsies performed.
The 2,5-dimethoxybenzyl (3b) and 4-methoxybenzyl (3e) ethers were tested in the same way in a 90-day study. […] The 2,5-dimethybenzyl (3c) and the 2,3-dimethoxybenzyl (3h) ethers, together with RTMBE for comparison, were likewise assayed according to the same methodology. Prior to the beginning of this study, specimens of the retinoid-diet mixtures were placed under the conditions that were employed during the storage and feeding of RTMBE, 3c, and 3h. The specimens were extracted with butanol, and the extracts were analyzed by HPLC. […] Testing of 3c and 3h was discontinued, but the RTMBE study was continued until the duration of the study was 180 days (Table 6). The results were similar to those of Experiment 1 (Table 3). The averages of the number of tumors per rat were reduced by 32-35%; in addition, the averages of the tumor weights per rat was 56-70% lower than the average tumor burden of the control group.
and was continued until the studies of 3b, 3c, 3e, and 3h were terminated
90 days after administration of MNU. The RTMBE experiment was continued
until 180 days after MNU administration (Table VI).
kilogram of Teklad diet.

[4] = Stability of retinyl ethers in storage and in solution; assay type: physicochemical; settings: weakly acidic ethanol solution
[5] = Mammary tissue-to-plasma concentration after intravenous dosing; assay type: in vivo, rat (female Sprague-Dawley); settings: rat, 5 mg/kg i.v., after 24 hr, read-out: ratio of mammary tissue-to-plasma concentrations
[6] = Toxicity of retinyl ethers in mice by gavage during 28-29 days
Procedure: Toxicological evaluations involving measurement of body weights and observations of clinical signs characteristic of retinoid toxicity were accomplished as previously described (Lin et al., 1996).
RTMBE and two of its analogues, together with RME and RPE, were selected for estimation of their toxicities to mice when administered during 28-29 days by gavage in corn oil (Table 8). Mice were evaluated for changes in body weight and for signs of clinical retinoid toxicity (hypervitaminosis A) including alopecia, scaly skin, and limping. In the first experiment, these retinyl ethers were given at equimicromolar doses at three dose levels. The retinyl benzyl ethers (RTMBE, 3c, and 3e) were then tested at higher doses in a second experiment.

[7] = target: T1, cellular retinol-binding protein (CRBP); settings: Sani, 1993; Sani et al., 1996; Shealy et al., 1997; cited from earlier work
[8] = tested on: serum retinol-binding protein (RBP); settings: 150-fold molar excess; Sani et al., 1996; cited from earlier work
[9] = tested on: NADPH-requiring enzymes in rat liver microsomes; settings: literature; cited from earlier work
[10] = rat, in feed; Shealy et al., 1997; cited from earlier work
[11] = cited from earlier work; for stability in refluxing ethanol: 24 hours or similar, protected from light and air, Shealy et al, 1997
[12] = tested on: carcinogen-induced mammary cancer; settings: cited from earlier work; for suppression of MNU-induced mammary cancer: Thompson et al., 1978 / Shealy et al.
[13] = Shealy et al., 1997, cited from earlier work; for toxicity in mammary carcinogenesis study: 2 mmol/kg of diet; for toxic dose in the feed after 90 days: Sprague-Dawley rats
[14] = tested on: serum retinol-binding protein (RBP); test: Binding to serum retinol-binding protein (RBP): inhibition of [3H]retinol binding; settings: % of that of retinol
[15] = tested on: MNU-induced mammary tumors
Procedure: The methods employed in the preparation of diets, analyses of retinoid-dietspecimens, and dietary treatment with retinoids of MNU-induced mammary carcinogenesis in Sprague-Dawley rats were described previously (Grubbs et al., 1995; Shealy et al., 1997). Briefly, diets were prepared by mixing each retinoid with Wayne meal or Teklad (4%) mash diet. For each kg of diet, the retinoid was dissolved in 12 g ethanol, 19 g trioctanoin, 0.05 mL Tenox 20, and 0.05 mL d,1-alpha tocopherol prior to incorporation into the feed using a Patterson-Kelly blender. Retinoid diet mixtures were stored at 4° C. Portions of each retinoid-diet mixture were analyzed for the added retinoid to ensure homogeneity. Female Sprague-Dawley rats received an i.v. injection of MNU (45 mg/kg body weight) at 50 days of age. Diet supplementation with retinoids was initiated three days after MNU. A group of rats receiving retinyl acetate (1 mmol/kg of diet) served as the positive control. The animals were palpated for mammary tumors 2×/week. At termination of the study, mammary tumors were processed for histological classification. Also, five rats/group had complete necropsies performed. The tissues were examined histologically for pathological lesions as additional toxicological evaluation. Extracts of the liver and mammary gland (5 rats/group) were analyzed by HPLC for retinyl palmitate and/or for the dosed retinoid. Statistical analyses of cancer incidence and latency were determined using logrank analysis, while differences in cancer multiplicity were determined employing the Armitage test.
^b Average number of palpable mammary tumors.
^c Diet supplementation with retinoids was initiated at 52 days of age
and was continued until the study was terminated 180 days after
administration of MNU. Treatment with retinoids is stated in millimoles of
retinoid per kilogram of diet (Wayne meal).
^d Female Sprague-Dawley rats received one i.v. injection of MNU (50
mg/kg of body weight) at 50 days of age.

[16] = Shealy et al., 1997; cited from earlier work
[17] = Expt. 2, 0.5 mmol/kg diet, 90 days
[18] = Expt. 2, 1 mmol/kg diet, 90 days
[19] = Expt. 2, 2 mmol/kg diet, 90 days
[20] = oral gavage in corn oil, 28-29 days

For `COc1ccc(COC/C=C(C)/C=C/C=C(C)/C=C/C2=C(C)CCCC2(C)C)cc1OC` [Compound 3a, Retinyl 3,4-Dimethoxybenzyl Ether], the “Percent Inhibition of [3H] Retinol Binding (CRBP Assay)” value [1] was 62 ± 8%, the “activity in ODC assay” value [2] was “not active in the ODC assay” and the “inhibition of papilloma formation” value (mouse-skin papillomas) was “ineffective in inhibiting papilloma formation”.
In the case of `COc1ccc(OC)c(COC/C=C(C)/C=C/C=C(C)/C=C/C2=C(C)CCCC2(C)C)c1` [Compound 3b, Retinyl 2,5-Dimethoxybenzyl Ether], the “binding to CRBP, in words” value ([1]; 150-fold molar excess) is reported as “good binder to CRBP”, the “Percent Inhibition of [3H] Retinol Binding (CRBP Assay)” value [1] is reported as 59 ± 13% and the “activity in ODC assay” value [2] is reported as “not active in the ODC assay”. For the same compound, the “inhibition of papilloma formation” value (mouse-skin papillomas) was “ineffective in inhibiting papilloma formation”, the “effectiveness compared with RTMBE” value ([3]; 90-day assays, MNU-induced mammary carcinogenesis) was “less effective than was RTMBE” and the “reductions in the number of tumors per rat” value ([3]; 90-day study, 1 and 2 mmol/kg of diet) was 26-52%. The “effectiveness in reducing the number of tumors per rat” value ([3]; 90 days, in feed) was “effective”, the “Tumors, % of Control Gp.” value [3, 17] was 77% and the “Tumors, Avg. No. per Rat” value [3, 17] was 2.7. The “Tumors, % of Control Gp.” value [3, 18] was 48%, the “Tumors, Avg. No. per Rat” value [3, 18] was 1.7 and the “Tumors, % of Control Gp.” value [3, 19] was 74%. The “Tumors, Avg. No. per Rat” value [3, 19] was 2.6, the “stability in weakly acidic ethanol (formation of anhydroretinol, 4)” value [4] was 4 is isolated and the Kp at 24 h [5] was 38 ± 20.
In the case of `COC/C=C(C)/C=C/C=C(C)/C=C/C1=C(C)CCCC1(C)C` [RME, retinyl methyl ether], the “Toxic Dose” value [6, 20] is listed as > 20 mg/kg day and < 40 mg/kg day, the “toxic dose from body-weight data” value [6, 20] is listed as under 40 mg/kg/day and the “binding to CRBP” value [7] is listed as “bind to cellular retinol-binding protein (CRBP)”. The “inhibition of binding of tritiated retinol (RBP), relative to retinol” value [8] was 100%, the “conversion (demethylation) to retinol or its analogue” value [9] was “demethylated to retinol in rat liver; also recorded: converted, respectively, to retinol or its TMMP analogue; also recorded: demethylation of RME by microsomal oxidases to retinol” and the “accumulation of retinyl palmitate in the liver” value [10] was “a toxic effect produced by efficacious amounts”. For the same compound, the “stability in refluxing ethanol” value [11] was “only minor degradation”, the “suppression of 7,12-DMBA-induced mammary cancer” value ([12]; rats, Grubbs et al, 1977) was “suppress” and the “suppression of MNU-induced mammary cancer” value ([12]; rats, 1997) was “suppress”. For the same compound, the “toxicity in mammary carcinogenesis study” value [13] was “RME was (at 2 mmol/kg of diet)” and the “toxic dose in the feed after 90 days” value [13] was > 1 mmole/kg of diet and < 2 mmole/kg of diet.
With `C#CCOC/C=C(C)/C=C/C=C(C)/C=C/C1=C(C)CCCC1(C)C` [RPE, retinyl propynyl ether] the “inhibition of [3H] retinol-binding (RBP), relative to that of retinol” value [14] was 70%, the NOAEL ([6]; mouse, in vivo, po) was 43 mg/kg/day and the “Toxic Dose” value [6, 20] was over 43 mg/kg day. For the same compound, the “reduction of average number of tumors per rat” value ([15]; after 90 days, 2 mmol/kg diet (Table 7)) was 44%, the “reduction in the average number of tumors per rat” value ([15]; by the end of the 180-day study, 2 mmol/kg diet (Table 7)) was 16% and the “% of Control Gp., Day 90” value ([15]; with MNU, 0.5 mmol/kg diet) was 74%. For the same compound, the “% of Control Gp., Day 180” value ([15]; with MNU, 0.5 mmol/kg diet) was 97%, the “Avg No. Per Rat (palpable mammary tumors), Day 90” value ([15]; with MNU, 0.5 mmol/kg diet) was 1.7 and the “Avg No. Per Rat (palpable mammary tumors), Day 180” value (“Avg No. Per Rat … Day 180” for short) ([15]; with MNU, 0.5 mmol/kg diet) was 6.2. For the same compound, the “% of Control Gp., Day 90” value ([15]; with MNU, 2 mmol/kg diet) was 56%, the “% of Control Gp., Day 180” value ([15]; with MNU, 2 mmol/kg diet) was 84% and the “Avg No. Per Rat (palpable mammary tumors), Day 90” value ([15]; with MNU, 2 mmol/kg diet) was 1.3. For the same compound, the “Avg No. Per Rat … Day 180” value ([15]; with MNU, 2 mmol/kg diet) was 5.4, the “Avg No. Per Rat … Day 180” value ([15]; without MNU, 0.5 mmol/kg diet) was 0 and the “Avg No. Per Rat … Day 180” value ([15]; without MNU, 2 mmol/kg diet) was 0. The “accumulation in mammary tissue” value [10] was “accumulated in rat mammary tissue”, the “accumulation of retinyl palmitate in the liver” value [10] was “did not cause; also recorded: some increase in retinyl palmitate in the liver” and the “recovery from the feed of rats” value [16] was “recoverable from the feed of rats”. The “stability in refluxing ethanol” value [11] was “intramolecular cyclization”, the “stability in the solid state and in solution” value ([11]; Shealy et al., 1996, 1997) was “slowly undergoes an intramolecular Diels-Alder reaction” and the “reduction of average number of tumors per rat” value ([12]; earlier 90-day study, 2 mmol/kg of diet, MNU, Shealy et al., 1997) was 48%. For the same compound, the “suppression of MNU-induced mammary cancer” value ([12]; rats, 1997) was “inhibited the development of MNU-induced mammary cancer; also recorded: more effective than retinyl acetate”, the “toxicity in mammary carcinogenesis study” value [13] was “not toxireas” and the “toxic dose in the feed after 90 days” value [13] was > 2 mmole/kg of diet.

Source: US6281250A, “Retinyl ethers, derivatives and analogues and inhibition of breast carcinogenesis” (Southern Research Institute, priority 1999, dated 2001)
